Counter-ions that a name gives are not always drawn. Like-named read-outs stand apart in the source and are kept apart here.
Experiments:
hROMK (hKir1.1) = hROMK (hKir1.1) (Homo sapiens (Human), UniProt P48048); test: Thallium Flux Assay (ROMK channel functional thallium flux, FLIPR-Tetra); assay type: cell-based
Protocol: HEK293 cells stably expressing hROMK (hKir1.1) were grown at 37° C. in a 10% CO2 humidified incubator in complete growth media: Dulbecco's Modified Eagle Medium supplemented with non-essential amino acids, Penicillin/Streptomycin/Glutamine, G418 and FBS. At >80% confluency, aspirate the media from the flask and rinse with 10 mL Calcium/Magnesium-free PBS. […] To dislodge the cell, gently bang the side of the flask with your hand. Triturate the cells completely and then transfer the cells to 25 mL complete media. Centrifuge at 1,500 rpm for 6 min followed by resuspension in complete growth media and determine cell concentration.
Compound Buffer (per microplate): 20 mL Probenecid/Assay Buffer; 0.3 mM ouabain (10 mM ouabain in water can be stored in amber bottle/aluminum foil at room temperature); Test compound
Stimulant Buffer (prepared at 5× final concentration in 1× FluxOR™ Chloride-Free Buffer): 7.5 mM Thallium sulfate and […] (to give a final assay concentration of 3 mM Thallium/0.3 mM Potassium). Store at 4° C. when not in use. If kept sterile, this solution is good for months.
The ROMK channel functional thallium flux assay is performed in 384 wells, using the FLIPR-Tetra instrument. HEK-hKir1.1 cells are seeded in Poly-D-Lysine microplates and kept in a 37° C.-10% CO2 incubator overnight. On the day of the experiment, the growth media is replaced with the FluxOR™ reagent loading buffer and incubated, protected from light, at ambient temperature (23-25° C.) for 90 min. The loading buffer is replaced with assay buffer±test compound followed by 30 min incubation at ambient temperature, where the Thallium/Potassium stimulant is added to the microplate.
1. Seed HEK-hKir1.1 cells (50 μl at 20,000 cells/well) in 384-well PDL coated Microplates
2. Allow cells to adhere overnight in humidified 37° C./10% CO2 incubator
3. Completely remove cell growth media from microplate and replace with 25 μl loading buffer
4. Incubate Microplate at room temperature, protected form light, for 90 min
5. Remove loading buffer and replace with 25 μl 1× Assay Buffer±test compound.
6. Incubate microplate at room temperature, protected from light, for 30 min
7. […] Excitation=400 nm, Emission=460 & 580 nm. Collect data for ˜10 min.
The fluorescence intensity of wells containing 3 μM of a standard control ROMK inhibitor of the present invention is used to define the ROMK-sensitive component of thallium flux. Fluorescence in the presence of test compounds is normalized to control values to provide % fluorescence change.

Kir1.1 (ROMK1) = Kir1.1 (ROMK1) (Homo sapiens (Human), UniProt P48048); test: Electrophysiology Assay (whole cell voltage clamp, IonWorks Quattro); assay type: cell-based; details: block during voltage step to 0 mV
Chain of Kir1.1 (ROMK1) (P48048 whole entry, species assumed): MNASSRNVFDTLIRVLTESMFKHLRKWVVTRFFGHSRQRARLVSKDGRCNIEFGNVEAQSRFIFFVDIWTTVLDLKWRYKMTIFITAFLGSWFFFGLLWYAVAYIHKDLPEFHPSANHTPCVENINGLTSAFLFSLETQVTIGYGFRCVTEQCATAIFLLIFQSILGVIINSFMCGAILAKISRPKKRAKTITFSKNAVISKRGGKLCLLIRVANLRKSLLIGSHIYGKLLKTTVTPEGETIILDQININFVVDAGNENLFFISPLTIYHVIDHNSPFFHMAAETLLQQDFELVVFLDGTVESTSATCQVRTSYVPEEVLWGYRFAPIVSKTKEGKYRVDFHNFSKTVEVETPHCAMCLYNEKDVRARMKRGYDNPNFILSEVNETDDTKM
Protocol: Chinese hamster ovary cells stably expressing Kir1.1 channels were maintained in T-75 flasks in cell culture media in a humidified 10% CO2 incubator at 37° C. Prior to an experiment, Kir1.1 expression was induced by overnight incubation with 1 mM sodium butyrate. […] After centrifugation, the cell pellet was resuspended in approximately 4.0 mL of bath solution and placed in the IonWorks instrument. The intracellular solution consisted of (in mM): 80 K gluconate, 40 KCl, 20 KF, 3.2 MgCl2, 3 EGTA, 5 Hepes, pH 7.4. Electrical access to the cytoplasm was achieved by perforation in 0.13 mg/mL amphotericin B for 4 min. […] Voltage protocols and current recordings were performed using the IonWorks HT software/hardware system. Currents were sampled at 1 kHz. No correction for liquid junction potentials was used. The test pulse, consisting of a 100 ms step to 0 mV from a holding potential of −70 mV, followed by a 100 ms voltage ramp from −70 mV to +70 mV, was applied before and after a 6 min compound incubation period. Test compounds were prepared by diluting DMSO stock solutions into the bath solution at 3× the final concentration and placed in the instrument in 96-well polypropylene plates. Current amplitudes were measured using the IonWorks software.

[1] = HEK293 cells stably expressing hROMK (hKir1.1), read-out: Thallium Flux IC50
[2] = Chinese hamster ovary cells stably expressing Kir1.1, read-out: Electrophysiology IC50
[3] = Electrophysiology IC50, Chinese hamster ovary cells stably expressing Kir1.1
[4] = Thallium Flux IC50, HEK293 cells stably expressing hROMK (hKir1.1)

Chain of hROMK (hKir1.1) (P48048 whole entry): as the sequence (P48048 whole entry, species assumed) above

Row | SMILES | IC50 (hROMK (hKir1.1); [1]) [nM] | IC50 (Kir1.1 (ROMK1); [2]) [nM] | IC50 (Kir1.1 (ROMK1); [3]) [nM] | IC50 (hROMK (hKir1.1); [4]) [nM]
1 | Cc1c([C@@H]2CN3CCN(CC(O)c4ccc(-n5cnnn5)nc4)C[C@H]3CO2)ccc(F)c1C#N (single isomer, unassigned) [Example 16] | 560 | 80 |  | 
2 | Cc1c([C@H]2CN3CCN(CC(O)c4ccc(-n5cnnn5)nc4)C[C@H]3CO2)ccc(F)c1C#N (single isomer, unassigned) [Example 17] | 850 | 150 |  | 
3 | Cc1c([C@H]2CN3CCN(CC(O)c4ccc(-n5cnnn5)nc4)C[C@H]3CO2)ccc(F)c1C#N (single isomer, unassigned) [Example 18] | 290 | 100 |  | 
4 | Cc1cc(-n2cnnn2)ncc1C(O)CN1CCN2C[C@@H](c3ccc(F)c(C#N)c3C)OC[C@@H]2C1 (single isomer, unassigned) [Example 19] | 440 |  | 260 | 
5 | Cc1cc(-n2cnnn2)ncc1C(O)CN1CCN2C[C@@H](c3ccc(F)c(C#N)c3C)OC[C@@H]2C1 (single isomer, unassigned) [Example 20] | 300 |  | 240 | 
6 | Cc1nc(-n2cnnn2)ccc1C(O)CN1CCN2C[C@@H](c3ccc(F)c(C#N)c3C)OC[C@@H]2C1 (single isomer, unassigned) [Example 21] | 260 |  |  | 
7 | Cc1c([C@@H]2CN3CCN(CC(O)c4cccc(-n5cnnn5)c4)C[C@@H]3CO2)ccc(F)c1C#N (single isomer, unassigned) [Example 22] | 310 | 440 |  | 
8 | Cc1c([C@@H]2CN3CCN(CC(O)c4cccc(-n5cnnn5)c4)C[C@@H]3CO2)ccc(F)c1C#N (single isomer, unassigned) [Example 23] | 320 |  |  | 
9 | Cc1cc2c(cc1C(O)CN1CCN3C[C@@H](c4ccc(F)c(C#N)c4C)OC[C@@H]3C1)COC2=O (single isomer, unassigned) [Example 24, trifluoroacetate] |  |  | 240 | 450
10 | Cc1cc2c(cc1C(O)CN1CCN3C[C@@H](c4ccc(F)c(C#N)c4C)OC[C@@H]3C1)COC2=O (single isomer, unassigned) [Example 25, trifluoroacetate] |  |  | 190 | 340
11 | Cc1cc2c(cc1C(O)CN1CCN3C[C@H](c4ccc(F)c(C#N)c4C)OC[C@@H]3C1)COC2=O (single isomer, unassigned) [Example 26, trifluoroacetate] |  |  | 220 | 250
12 | Cc1cc2c(cc1C(O)CN1CCN3C[C@H](c4ccc(F)c(C#N)c4C)OC[C@@H]3C1)COC2=O (single isomer, unassigned) [Example 27, trifluoroacetate] |  |  | 240 | 310
13 | COc1cc(C(O)CN2CCN3C[C@@H](c4ccc5c(c4C)COC5=O)OC[C@@H]3C2)c(F)cc1C#N (single isomer, unassigned) [Example 37] | 470 | 110 |  | 
14 | Cc1cc2c(cc1C(O)CN1CCN3C[C@@H](c4ccc5c(c4C)COC5=O)OC[C@@H]3C1)COC2=O (single isomer, unassigned) [Example 42] | 220 | 80 |  | 
15 | Cc1cc2c(cc1C(O)CN1CCN3C[C@@H](c4ccc5c(c4C)COC5=O)OC[C@@H]3C1)COC2=O (single isomer, unassigned) [Example 43] | 210 | 130 |  | 
16 | Cc1c([C@@H]2CN3CCN(CC(O)c4ccc5c(c4)C[C@H](C)OC5=O)C[C@H]3CO2)ccc2c1COC2=O (single isomer, unassigned) [Example 44] | 270 | 130 |  | 

Row | SMILES | IC50 (hROMK (hKir1.1); [1]) [nM] | IC50 (Kir1.1 (ROMK1); [2]) [nM] | IC50 (Kir1.1 (ROMK1); [3]) [nM] | IC50 (hROMK (hKir1.1); [4]) [nM]
17 | COc1cc(C(O)CN2CCN3C[C@@H](c4ccc5c(c4C)COC5=O)OC[C@@H]3C2)c(Cl)cc1C#N (stereo partly drawn) [Example 9, (3R,9aS)-8-[2-(2-chloro-4-cyano-5-methoxyphenyl)-2-hydroxyethyl]-3-(4-methyl-1-oxo-1,3-dihydro-2-benzofuran-5-yl)octahydropyrazino[2,1-c][1,4]oxazin-5-ium chloride] | 430 |  |  | 
18 | COc1c([C@@H]2CN3CCN(C[C@H](O)c4ccc5c(c4C)COC5=O)C[C@H]3CO2)ccc(C#N)c1F [Example 30, (3R,9aS)-3-(4-cyano-3-fluoro-2-methoxyphenyl)-8-[(2R)-2-hydroxy-2-(4-methyl-1-oxo-1,3-dihydro-2-benzofuran-5-yl)ethyl]octahydropyrazino[2,1-c][1,4]oxazin-8-ium chloride] | 230 |  |  | 
19 | COc1c([C@@H]2CN3CCN(C[C@@H](O)c4ccc5c(c4C)COC5=O)C[C@H]3CO2)ccc(C#N)c1F [Example 31, (3R,9aS)-3-(4-cyano-3-fluoro-2-methoxyphenyl)-8-[(2S)-2-hydroxy-2-(4-methyl-1-oxo-1,3-dihydro-2-benzofuran-5-yl)ethyl]octahydropyrazino[2,1-c][1,4]oxazin-8-ium chloride] | 650 |  |  | 
20 | COc1cc(CCN2CCN3C[C@@H](c4ccc5c(c4)COC5=O)OC[C@@H]3C2)ccc1C#N [Example 58] |  | 120 |  | 
21 | COc1cc(CCN2CCN3C[C@H](c4ccc5c(c4)COC5=O)OC[C@@H]3C2)ccc1C#N [Example 59] |  | 40 |  | 
22 | COc1cc(CCN2CCN3C[C@H](c4ccc5c(c4C)COC5=O)OC[C@@H]3C2)ccc1C#N [Example 60] |  | 180 |  | 
23 | O=C1OCc2cc(CCN3CCN4C[C@@H](c5ccc6c(c5)COC6=O)OC[C@@H]4C3)ccc21 [Example 62] |  | 40 |  | 
24 | Cc1c(CCN2CCN3C[C@H](c4ccc5c(c4C)COC5=O)OC[C@H]3C2)ccc2c1COC2=O [Example 67] |  | 70 |  | 
25 | Cc1c(CCN2CCN3C[C@@H](c4ccc5c(c4C)COC5=O)OC[C@H]3C2)ccc2c1COC2=O [Example 68] |  | 140 |  | 
26 | COc1cc([C@H]2CN3CCN(CCc4ccc5c(c4C)COC5=O)C[C@H]3CO2)ccc1C#N [Example 74] |  | 80 |  | 
27 | Cc1c([C@H]2CN3CCN(CCc4ccc5c(c4C)COC5=O)C[C@@H]3CO2)ccc(F)c1C#N [Example 77] |  | 70 |  | 
28 | Cc1c([C@@H]2CN3CCN(CCc4ccc5c(c4C)COC5=O)C[C@@H]3CO2)ccc(F)c1C#N [Example 78] |  | 70 |  | 
29 | COc1cc(F)c(CCN2CCN3C[C@@H](c4ccc5c(c4C)COC5=O)OC[C@@H]3C2)cc1C#N [Example 84] |  | 50 |  | 
30 | COc1cc(CCN2CCN3C[C@@H](c4ccc5c(c4)C[C@H](C)OC5=O)OC[C@@H]3C2)ccc1C#N [Example 85] |  | 90 |  | 
31 | Cc1c([C@@H]2CN3CCN(C[C@H](O)c4ccc5c(c4C)COC5=O)C[C@H]3CN2)ccc(F)c1C#N [Example 102, 6-fluoro-3-((3R,9aR)-8-((R)-2-hydroxy-2-(4-methyl-1-oxo-1,3-dihydroisobenzofuran-5-yl)ethyl)octahydro-1H-pyrazino[1,2-a]pyrazin-3-yl)-2-methylbenzonitrile] | 210 |  |  | 
32 | Cc1c([C@@H]2CN3CCN(CC4OCCc5c4ccc4c5COC4=O)C[C@H]3CO2)ccc2c1COC2=O (stereo partly drawn) [Example 109, 6-{[(3R,9aS)-3-(4-methyl-1-oxo-1,3-dihydro-2-benzofuran-5-yl)hexahydropyrazino[2,1-c][1,4]oxazin-8(1H)-yl]methyl}-8,9-dihydro-1H-furo[3,4-f]isochromen-3(6H)-one] |  | 50 |  | 

— patent publication US9604998B2, “Inhibitors of the renal outer medullary potassium channel” (MERCK SHARP & DOHME CORP., priority 2013, dated 2017)
